Measurements as given in patent publication US20110015226A1, “Treatment of Energy Utilization Disease” (SUMMIT CORPORATION PLC, priority 2008, published 2011).
pIC50: −log10 of the molar value.

Legend:
[1] = biological target: T1, β-Glucuronidase Bovine liver (Bos taurus, UniProt A3KMY8); assay: Glycosidase inhibition: β-Glucuronidase Bovine liver; type: biochemical; details: for % Glucuronidase inhibition at 0.8 mM Bovine Liver: approximately 0.8 mM; for pIC50: read-out: IC50 Glucuronidase Bovine Liver;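 on all read-outs here: bovine liver β-glucuronidase acting on p-nitrophenyl β-D-glucuronide substrate in citric acid/disodium hydrogen phosphate buffer, pH 5.0, 27 °C, mean of triplicate runs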
T1 construct: The assay involved the use of Bovine liver β-glucuronidase; purchased Sigma; host or cells: bovine liver
T1 sequence (A3KMY8 1-652): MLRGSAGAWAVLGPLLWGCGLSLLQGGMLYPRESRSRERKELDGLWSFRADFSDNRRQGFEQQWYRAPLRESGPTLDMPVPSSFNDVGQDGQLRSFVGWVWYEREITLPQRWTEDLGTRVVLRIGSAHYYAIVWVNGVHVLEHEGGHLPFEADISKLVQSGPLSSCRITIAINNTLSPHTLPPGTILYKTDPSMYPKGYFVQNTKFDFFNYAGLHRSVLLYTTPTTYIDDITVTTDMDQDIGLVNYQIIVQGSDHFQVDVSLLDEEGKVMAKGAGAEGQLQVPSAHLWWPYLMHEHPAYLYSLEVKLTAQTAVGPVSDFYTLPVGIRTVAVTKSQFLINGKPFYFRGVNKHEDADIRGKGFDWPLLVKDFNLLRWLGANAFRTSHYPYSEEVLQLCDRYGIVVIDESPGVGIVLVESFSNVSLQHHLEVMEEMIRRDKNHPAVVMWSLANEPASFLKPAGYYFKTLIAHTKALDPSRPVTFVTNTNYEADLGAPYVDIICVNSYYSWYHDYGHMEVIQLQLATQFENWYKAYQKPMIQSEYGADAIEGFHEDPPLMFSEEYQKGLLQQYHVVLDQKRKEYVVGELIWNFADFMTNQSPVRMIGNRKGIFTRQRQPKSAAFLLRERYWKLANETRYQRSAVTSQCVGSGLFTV

[2] = tested on: N-acetyl-β-D-glucosaminidase (Bovine kidney); assay: Glycosidase inhibition: N-acetyl-β-D-glucosaminidase (Bovine kidney); type: biochemical; details: for % Nacetyl glucosaminidase inhibition at 0.8 mM Bovine kidney: approximately 0.8 mM;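 on all read-outs here: enzyme activity followed by cleavage of the matching p-nitrophenyl glycoside (5 mM) in phosphate buffer set to the enzyme's optimal pH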

Structure (SMILES) | % Glucuronidase inhibition at 0.8 mM Bovine Liver [1] [%] | % Nacetyl glucosaminidase inhibition at 0.8 mM Bovine kidney [2] [%] | pIC50 [1] | pIC50 ([2]; read-out: IC50 Nacetyl glucosaminidase Bovine kidney) | inhibition at 143 µg/mL ([1]; 143 ug/ml) [%] | Mean % Inhibition, N-acetyl-β-D-glucosaminidase Bovine kidney ([2]; 143 ug/ml) [%]
O=C(O)[C@@H]1[C@@H](O)[C@H](O)[C@H]2[C@@H](O)CCN21 | −2.3 | 5.1 | – | – | – | –
O=C(O)[C@]1(O)NC[C@@H](O)[C@H]1O | 1.4 | 2.9 | – | – | – | –
O=C(O)[C@@]1(O)CNC[C@@H](O)[C@H]1O | 58.6 | 4.8 | 3.27 | – | – | –
O=C(O)CN1C[C@@H](O)[C@@H](O)C1[C@@H](O)CO (stereo partly shown) | 4 | 82.3 | – | 3.86 | – | –
CC[C@@H]1C(=O)[C@H](O)CN1CCCCC(=O)O | 0.8 | 8 | – | – | – | –
O=C(O)[C@H]1NC[C@H](O)[C@@H](O)[C@@H]1O [drawing 22] | 88.9 | 2.4 | 3.97 | – | – | –
CC(=O)NC1NC[C@H](C(=O)O)[C@H](O)[C@@H]1O (stereo partly shown) | 97.9 | 57.9 | 5.14 | – | – | –
Cn1c(=O)c2c(ncn2C)n(C)c1=O [Caffeine, reference compound] | – | – | – | – | -2.4 | 1.3

Continued, in another order:

% Glucuronidase inhibition at 0.8 mM Bovine Liver [1] [%] | % Nacetyl glucosaminidase inhibition at 0.8 mM Bovine kidney [2] [%] | pIC50 [1] | pIC50 ([2]; read-out: IC50 Nacetyl glucosaminidase Bovine kidney) | Structure (SMILES) | inhibition at 143 µg/mL ([1]; 143 ug/ml) [%] | Mean % Inhibition, N-acetyl-β-D-glucosaminidase Bovine kidney ([2]; 143 ug/ml) [%]
0.6 | 7.6 | – | – | C[C@@]1(C(=O)O)NC[C@H](O)[C@H]1O | – | –
−2.2 | 7.1 | – | – | N[C@]1(C(=O)O)C[C@H](CO)C1 | – | –
−1.7 | 2.3 | – | – | C[N+]1(C)CCC[C@H]1C(=O)[O-] | – | –
−3.7 | −4.7 | – | – | CN1C[C@H](O)C[C@H]1C(=O)O | – | –
